# US20240217961A1 (MONOPTEROS THERAPEUTICS, INC., priority 2021, published 2024)
# Read-outs that look alike come from different tables or passages of the source.
# Experiments:
# pKa of free form (UV) = type: physicochemical
# CYP2C8 = target: T1, CYP2C8 (Homo sapiens, UniProt P10632); assay: CYP phenotyping, recombinant CYP enzyme incubation; type: in vitro ADME
# T1 sequence (P10632 1-490): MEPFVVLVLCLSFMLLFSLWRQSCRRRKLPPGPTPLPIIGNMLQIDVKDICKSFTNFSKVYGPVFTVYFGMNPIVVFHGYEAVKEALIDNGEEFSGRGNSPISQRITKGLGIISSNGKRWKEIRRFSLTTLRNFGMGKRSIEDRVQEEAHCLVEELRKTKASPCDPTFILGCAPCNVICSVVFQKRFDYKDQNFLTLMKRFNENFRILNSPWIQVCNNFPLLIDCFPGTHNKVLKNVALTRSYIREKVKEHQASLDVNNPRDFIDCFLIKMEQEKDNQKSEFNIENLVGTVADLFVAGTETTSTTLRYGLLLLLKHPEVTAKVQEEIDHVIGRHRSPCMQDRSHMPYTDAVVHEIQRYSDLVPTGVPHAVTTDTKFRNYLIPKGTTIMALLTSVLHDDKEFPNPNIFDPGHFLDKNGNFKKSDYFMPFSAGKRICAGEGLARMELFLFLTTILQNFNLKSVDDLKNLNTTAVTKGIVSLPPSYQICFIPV
# Procedure: (§1) These incubations were carried out at a concentration of 1 µM and contained 50 pmol/ml of CYP protein. Samples were taken at 0, 5, 10, 15, 20 and 30 minutes. The CLint and t1/2 were calculated from the data.
# human CYP3A5 = human CYP3A5 (Homo sapiens, UniProt P20815); assay: CYP phenotyping, recombinant CYP enzyme incubation; type: in vitro ADME
# Procedure: as §1
# [1] = Approximate solubility of free form in solvents at 25° C. (manual dilution, visual observation); type: physicochemical; details: thermodynamic from solid, read-out: Solubility (mg/mL) at 25° C.
# Procedure: The experiment was conducted by manual dilution combined with visual observation at 25° C. The total volumes of solvents added were recorded.
# human liver microsomes = assay: CYP phenotyping, human liver microsomes with or without specific chemical inhibitors; type: in vitro ADME; details: for Inhibition % / % Remaining at 60 min: human liver microsomes; for % Remaining at 60 min: mean ± SD, n = 3
# Procedure: Human liver microsomes with or without specific inhibitors: By using human liver microsomes with chemical inhibitor, compared to without chemical inhibitor, the incubation was carried out at a concentration of 1 µM with samples taken 0, 15, 30, 45 and 60 min, and analyzed by UPLC-MS/MS to quantitate the concentration of parent remaining. The % remaining was calculated.
# human CYP3A5, sequence (P20815 whole entry): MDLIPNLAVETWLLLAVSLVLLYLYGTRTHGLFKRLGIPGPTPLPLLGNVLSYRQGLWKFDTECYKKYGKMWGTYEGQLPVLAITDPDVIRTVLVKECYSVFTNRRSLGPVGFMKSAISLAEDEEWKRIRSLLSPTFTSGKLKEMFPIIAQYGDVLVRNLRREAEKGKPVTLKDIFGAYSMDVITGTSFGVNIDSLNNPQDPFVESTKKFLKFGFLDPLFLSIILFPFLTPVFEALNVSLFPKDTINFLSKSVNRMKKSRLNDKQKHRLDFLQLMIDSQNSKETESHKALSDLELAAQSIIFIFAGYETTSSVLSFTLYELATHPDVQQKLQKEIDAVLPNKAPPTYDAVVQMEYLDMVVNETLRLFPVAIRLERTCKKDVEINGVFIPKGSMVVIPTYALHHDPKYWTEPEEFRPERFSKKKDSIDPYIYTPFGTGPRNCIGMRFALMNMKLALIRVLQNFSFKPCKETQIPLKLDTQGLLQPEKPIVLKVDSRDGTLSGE
compound,measurement,setting,value
"CN1CCC[C@H](CN2c3ccccc3Sc3ccccc32)C1 [(S)-mepazine, (S)-10-((1-methylpiperidin-3-yl)methyl)-10H-phenothiazine]",pKa,pKa of free form (UV),9.24
same,Contribution %,CYP2C8; CYP2C8,12.8%
same,contribution %,CYP2C8; CYP2C8,12.8%
same,half-life at 1 µM,"CYP2C8; human, recombinant CYP2C8, 1 µM, 50 pmol/ml of CYP protein, mean ± SD, n = 3",57.2 ± 14.4 min
same,CLint,"CYP2C8; recombinant CYP2C8, 1 µM, 50 pmol/ml of CYP protein, mean ± SD, n = 3",0.254 ± 0.0720 μL/min/pmol CYP
same,CLint,"CYP2C8; recombinant CYP2C8, 1 µM, 50 pmol/ml CYP protein",0.254 µL/min/pmol
same,Contribution %,human CYP3A5,0.0651%
same,contribution %,human CYP3A5,0.0651%
same,solubility,"[1]; 1,4-dioxane, organic solvent or mixture",> 100 mg/mL
same,solubility,"[1]; 2-propanol, organic solvent or mixture",33.3 to 50 mg/mL
same,solubility,"[1]; DMF, organic solvent or mixture",> 100 mg/mL
same,solubility,"[1]; acetone, organic solvent or mixture",> 100 mg/mL
same,solubility,"[1]; acetonitrile, organic solvent or mixture",25 to 33.3 mg/mL
same,solubility,"[1]; dichloromethane, organic solvent or mixture",> 100 mg/mL
same,solubility,"[1]; ethanol, organic solvent or mixture",> 100 mg/mL
same,solubility,"[1]; ethyl acetate, organic solvent or mixture",50 to 100 mg/mL
same,solubility,"[1]; heptane, organic solvent or mixture",10 to 14.3 mg/mL
same,solubility,"[1]; isopropyl acetate, organic solvent or mixture",50 to 100 mg/mL
same,solubility,"[1]; methanol, organic solvent or mixture",> 100 mg/mL
same,solubility,"[1]; methyl ethyl ketone, organic solvent or mixture",> 100 mg/mL
same,solubility,"[1]; t-butyl methyl ether, organic solvent or mixture",25 to 33.3 mg/mL
same,solubility,"[1]; tetrahydrofuran, organic solvent or mixture",> 100 mg/mL
same,solubility,"[1]; toluene, organic solvent or mixture",> 100 mg/mL
same,solubility,[1]; water,< 2 mg/mL
same,inhibition % of (S)-mepazine metabolism,human liver microsomes; human liver microsomes with inhibitor of CYP2C8,< 20%
same,Inhibition %,human liver microsomes; CYP1A2 (Furafylline),31.6%
same,% Remaining at 60 min,human liver microsomes; CYP1A2 (Furafylline),55.3 ± 4.07%
same,Inhibition %,human liver microsomes; CYP2A6 (Tranylcypromine),25.6%
same,% Remaining at 60 min,human liver microsomes; CYP2A6 (Tranylcypromine),53.4 ± 2.69%
same,Inhibition %,human liver microsomes; CYP2B6 (Ticlopidine),22.8%
same,% Remaining at 60 min,human liver microsomes; CYP2B6 (Ticlopidine),52.6 ± 3.79%
same,Inhibition %,human liver microsomes; CYP2C8 (Montelukast),19.3%
same,% Remaining at 60 min,human liver microsomes; CYP2C8 (Montelukast),50.5 ± 4.24%
same,Inhibition %,human liver microsomes; CYP2C9 (Sulfaphenazole),33.9%
same,% Remaining at 60 min,human liver microsomes; CYP2C9 (Sulfaphenazole),57.4± 2.68%
same,Inhibition %,human liver microsomes; CYP2C19 (N-3-benzylnirvanol),24.3%
same,% Remaining at 60 min,human liver microsomes; CYP2C19 (N-3-benzylnirvanol),53.1 ± 1.75%
same,Inhibition %,human liver microsomes; CYP2D6 (Quinidine),74.4%
same,% Remaining at 60 min,human liver microsomes; CYP2D6 (Quinidine),80.9 ± 3.69%
same,Inhibition %,human liver microsomes; CYP3A (Ketoconazole),21.4%
same,% Remaining at 60 min,human liver microsomes; CYP3A (Ketoconazole),50.2 ± 4.00%
same,Inhibition %,human liver microsomes; Without inhibitor,0.00%
same,% Remaining at 60 min,human liver microsomes; Without inhibitor,44.7 ± 2.57%
